Data from US6399646B1 (priority 2001, dated 2002).
Where two headings read alike, the source gives them in different places. Marks after values point to notes of the source that are not given here.

Legend:
Ralstonia solanacearum = format: in vivo; details: for Bacterial wilt severity: foliar application, tomato plants, scale 0=healthy to 4=dead plant
Ralstonia [1] = details: tomato plants transferred into hydroponic solutions inoculated with Ralstonia and previously treated with 3-IBA; more than 60% wilt in its absence; cited from earlier work
Ralstonia [2] = details: solution added to Ralstonia culture liquid in physiological brine; cited from earlier work

Row | Compound | Bacterial wilt severity (Ralstonia solanacearum; higher concentration (2.0 lbs active ingredient per 100 gallons), rated 9/26/2000, six replications) | Bacterial wilt severity (Ralstonia solanacearum; higher concentration (2.0 lbs active ingredient per 100 gallons), rated 9/27/2000) | Bacterial wilt severity (Ralstonia solanacearum; higher concentration (2.0 lbs active ingredient per 100 gallons), rated 9/30/2000) | Bacterial wilt severity (Ralstonia solanacearum; higher concentration (2.0 lbs active ingredient per 100 gallons), rated 10/04/2000) | Bacterial wilt severity (Ralstonia solanacearum; higher concentration (2.0 lbs active ingredient per 100 gallons), rated 10/26/2000) | Bacterial wilt severity (Ralstonia solanacearum; low concentration (0.25 lbs active ingredient per 100 gallons), rated 9/26/2000, six replications) | Bacterial wilt severity (Ralstonia solanacearum; low concentration (0.25 lbs active ingredient per 100 gallons), rated 9/27/2000) | Bacterial wilt severity (Ralstonia solanacearum; low concentration (0.25 lbs active ingredient per 100 gallons), rated 9/30/2000) | Bacterial wilt severity (Ralstonia solanacearum; low concentration (0.25 lbs active ingredient per 100 gallons), rated 10/04/2000) | Bacterial wilt severity (Ralstonia solanacearum; low concentration (0.25 lbs active ingredient per 100 gallons), rated 10/26/2000) | Plants revived and recovering at the end of the trial (Ralstonia solanacearum; higher concentration, foliar treatment prior to inoculation, of 6 tomato plants) | State of the 6 treated plants by the end of the trial (Ralstonia solanacearum; low concentration, foliar treatment prior to inoculation, 6 tomato plants) | Plants slightly wilted (Ralstonia [1]) | Ralstonia growth (turbidity of culture liquid) (Ralstonia [2])
1 | CC(CC(=O)O)c1c[nH]c2ccccc12 (centres unmarked) [3-IBA, 3-(3-indolyl) butanoic acid] | 2.3 | 3.0 | 2.8 | 3.3 | 1.5*** | 2.5 | 3.0 | 4.0 | 3.8 | 4.0** | 3 plants | all dead | less than 10% | –
2 | C[C@@H](CC(=O)O)c1c[nH]c2ccccc12 [(S)-3-(3-indolyl) butanoic acid] | – | – | – | – | – | – | – | – | – | – | – | – | – | suppression of Ralstonia growth
